Test results published in US11285156B2, “Substituted piperazines as KRAS G12C inhibitors” (Amgen Inc., priority 2018, dated 2022).

Columns and labels:
[1] = tested on: Phosphorylation of ERK1/2 in MIA PaCa-2 cells; test: Phospho-ERK1/2 MSD assay in MIA PaCa-2 cells; assay type: cell-based; conditions: Homo sapiens, MIA PaCa-2, 2 h, read-out: p-ERK IC50 (2 h, MiaPaCa-2; μM), 2 h compound treatment, MIA PaCa-2 cells, EGF stimulated
Outline: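 Phospho-ERK1/2 measured by MSD electrochemiluminescence kit in RIPA lysates of MIA PaCa-2 cells. Cells were treated with compound titrations for 2 or 4 h at 37 °C, 5% CO2, followed by a 10 min pulse of 10 ng/mL EGF.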

[2] = target: GDP-bound KRAS protein (aa 1-169), containing both G12C and C118A amino acid substitutions (Homo sapiens (Human), UniProt P01116, C118A/G12C); test: Coupled nucleotide exchange assay (SOS-mediated nucleotide exchange, AlphaScreen); assay type: biochemical; conditions: read-out: Coupled exchange IC50 (5 min; μM); 5 min compound pre-incubation
[3] = tested on: Phosphorylation of ERK1/2 in A549 cells; test: Phospho-ERK1/2 MSD assay in A549 cells; assay type: cell-based; conditions: Homo sapiens, A549, 2 h, read-out: p-ERK IC50 (2 h, A549; μM), 2 h compound treatment, A549 cells, EGF stimulated
Outline: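 MSD electrochemiluminescent read-out of phospho-ERK1/2 in RIPA lysates. Cells in RPMI 1640 with 10% FBS received titrated compound for 2 or 4 h, then 10 ng/mL EGF for 10 min before ice-cold PBS wash and lysis.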

GDP-bound KRAS protein (aa 1-169), containing both G12C and C118A amino acid substitutions, sequence (P01116 other isoform, or with tags, fused parts or gaps G12C/C118A): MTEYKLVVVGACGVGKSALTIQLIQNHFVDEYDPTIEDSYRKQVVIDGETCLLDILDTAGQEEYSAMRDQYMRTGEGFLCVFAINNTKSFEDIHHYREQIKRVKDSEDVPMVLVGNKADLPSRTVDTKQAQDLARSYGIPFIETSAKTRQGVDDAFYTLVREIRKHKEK

Structure (SMILES) | IC50 [1] | IC50 [2] | IC50 [3]
C=CC(=O)N1C[C@H](C)N(c2nc(=O)n(-c3c(C)ccnc3C(C)C)c3nc(-c4cccc(C#CC)c4)c(Cl)cc23)C[C@H]1C (atropisomer, axis not shown; (M)) [Example 92-49, (M)-6-Chloro-4-[(2S,5R)-2,5-dimethyl-4-prop-2-enoyl-piperazin-1-yl]-1-(2-isopropyl-4-methyl-3-pyridyl)-7-(3-prop-1-ynylphenyl) pyrido[2,3-d]pyrimidin-2-one] | 0.328 µM | 0.123 µM | > 7.5 µM
C=CC(=O)N1C[C@H](C)N(c2nc(=O)n(-c3c(C)ccnc3C(C)C)c3nc(-c4ccccc4Cl)c(Cl)cc23)C[C@H]1C (atropisomer, axis not shown; (M)) [Example 92-51, (M)-6-Chloro-7-(2-chlorophenyl)-4-[(2S,5R)-2,5-dimethyl-4-prop-2-enoyl-piperazin-1-yl]-1-(2-isopropyl-4-methyl-3-pyridyl)pyrido [2,3-d]pyrimidin-2-one] | 0.03 µM | 0.033 µM | > 7.5 µM
C=CC(=O)N1C[C@H](C)N(c2nc(=O)n(-c3c(C)ccnc3C(C)C)c3nc(-c4cccc(F)c4)c(Cl)cc23)C[C@H]1C (atropisomer, axis not shown; (M)) [Example 92-52, (M)-6-Chloro-4-[(2S,5R)-2,5-dimethyl-4-prop-2-enoyl-piperazin-1-yl]-7-(3-fluorophenyl)-1-(2-isopropyl-4-methyl-3-pyridyl)pyrido [2,3-d]pyrimidin-2-one] | 0.196 µM | 0.161 µM | > 7.5 µM
C=CC(=O)N1C[C@H](C)N(c2nc(=O)n(-c3c(C)ccnc3C(C)C)c3nc(-c4cccc(C)c4)c(Cl)cc23)C[C@H]1C (atropisomer, axis not shown; (M)) [Example 92-53, (M)-6-Chloro-4-[(2S,5R)-2,5-dimethyl-4-prop-2-enoyl-piperazin-1-yl]-1-(2-isopropyl-4-methyl-3-pyridyl)-7-(m-tolyl)pyrido[2,3-d]pyrimidin-2-one] | 0.309 µM | 0.135 µM | > 7.5 µM
C=CC(=O)N1C[C@H](C)N(c2nc(=O)n(-c3c(C)ccnc3C(C)C)c3nc(-c4cccc(Cl)c4)c(Cl)cc23)C[C@H]1C (atropisomer, axis not shown; (M)) [Example 92-54, (M)-6-Chloro-7-(3-chlorophenyl)-4-[(2S,5R)-2,5-dimethyl-4-prop-2-enoyl-piperazin-1-yl]-1-(2-isopropyl-4-methyl-3-pyridyl)pyrido [2,3-d]pyrimidin-2-one] | 0.217 µM | 0.169 µM | > 7.5 µM
C=CC(=O)N1C[C@H](C)N(c2nc(=O)n(-c3c(C)ccnc3C(C)C)c3nc(-c4ccccc4CC)c(Cl)cc23)C[C@H]1C (atropisomer, axis not shown; (M)) [Example 92-55, (M)-6-Chloro-4-[(2S,5R)-2,5-dimethyl-4-prop-2-enoyl-piperazin-1-yl]-7-(2-ethylphenyl)-1-(2-isopropyl-4-methyl-3-pyridyl)pyrido [2,3-d]pyrimidin-2-one] | 0.018 µM | 0.021 µM | > 7.5 µM
C=CC(=O)N1C[C@H](C)N(c2nc(=O)n(-c3c(C)ccnc3C(C)C)c3nc(-c4ccc(F)cc4)c(Cl)cc23)C[C@H]1C (atropisomer, axis not shown; (M)) [Example 92-57, (M)-6-Chloro-4-[(2S,5R)-2,5-dimethyl-4-prop-2-enoyl-piperazin-1-yl]-7-(4-fluorophenyl)-1-(2-isopropyl-4-methyl-3-pyridyl)pyrido [2,3-d]pyrimidin-2-one] | 0.126 µM | 0.126 µM | > 7.5 µM
C=CC(=O)N1C[C@H](C)N(c2nc(=O)n(-c3c(C)ccnc3C(C)C)c3nc(-c4cccc(C)c4F)c(Cl)cc23)C[C@H]1C (atropisomer, axis not shown; (M)) [Example 92-58, (M)-6-Chloro-4-[(2S,5R)-2,5-dimethyl-4-prop-2-enoyl-piperazin-1-yl]-7-(2-fluoro-3-methyl-phenyl)-1-(2-isopropyl-4-methyl-3-pyridyl)pyrido [2,3-d]pyrimidin-2-one] | 0.023 µM | 0.074 µM | > 7.5 µM
C=CC(=O)N1C[C@H](C)N(c2nc(=O)n(-c3c(C)ccnc3C(C)C)c3nc(-c4cccc(F)c4C)c(Cl)cc23)C[C@H]1C (atropisomer, axis not shown; (M)) [Example 92-59, (M)-6-Chloro-4-[(2S,5R)-2,5-dimethyl-4-prop-2-enoyl-piperazin-1-yl]-7-(3-fluoro-2-methyl-phenyl)-1-(2-isopropyl-4-methyl-3-pyridyl)pyrido [2,3-d]pyrimidin-2-one] | 0.034 µM | 0.028 µM | > 7.5 µM
C=CC(=O)N1C[C@H](C)N(c2nc(=O)n(-c3c(C)ccnc3C(C)C)c3nc(-c4cc(C)ccc4F)c(Cl)cc23)C[C@H]1C (atropisomer, axis not shown; (M)) [Example 92-60, (M)-6-Chloro-4-[(2S,5R)-2,5-dimethyl-4-prop-2-enoyl-piperazin-1-yl]-7-(2-fluoro-5-methyl-phenyl)-1-(2-isopropyl-4-methyl-3 pyridyl)pyrido [2,3-d]pyrimidin-2-one] | 0.018 µM | 0.02 µM | > 7.5 µM
C=CC(=O)N1C[C@H](C)N(c2nc(=O)n(-c3c(C)ccnc3C(C)C)c3nc(-c4ccc(F)cc4F)c(Cl)cc23)C[C@H]1C (atropisomer, axis not shown; (M)) [Example 92-61, (M)-6-Chloro-7-(2,4-difluorophenyl)-4-[(2S,5R)-2,5-dimethyl-4-prop-2-enoyl-piperazin-1-yl]-1-(2-isopropyl-4-methyl-3-pyridyl)pyrido [2,3-d]pyrimidin-2-one] | 0.027 µM | 0.008 µM | > 7.5 µM
C=CC(=O)N1C[C@H](C)N(c2nc(=O)n(-c3c(C)ccnc3C(C)C)c3nc(-c4cccc(F)c4OC)c(Cl)cc23)C[C@H]1C (atropisomer, axis not shown; (M)) [Example 92-62, (M)-6-Chloro-4-[(2S,5R)-2,5-dimethyl-4-prop-2-enoyl-piperazin-1-yl]-7-(3-fluoro-2-methoxy-phenyl)-1-(2-isopropyl-4-methyl-3-pyridyl)pyrido [2,3-d]pyrimidin-2-one] | 0.075 µM | 0.01 µM | > 7.5 µM
C=CC(=O)N1C[C@H](C)N(c2nc(=O)n(-c3c(C)ccnc3C(C)C)c3nc(-c4cccc(F)c4C(F)(F)F)c(Cl)cc23)C[C@H]1C (atropisomer, axis not shown; (M)) [Example 92-63, (M)-6-Chloro-4-[(2S,5R)-2,5-dimethyl-4-prop-2-enoyl-piperazin-1-yl]-7-[3-fluoro-2-(trifluoromethyl)phenyl]-1-(2-isopropyl-4-methyl-3-pyridyl)pyrido [2,3-d]pyrimidin-2-one] | 0.052 µM | 0.039 µM | > 7.5 µM
C=CC(=O)N1C[C@H](C)N(c2nc(=O)n(-c3c(C)ccnc3C(C)C)c3nc(-c4cccc(F)c4Cl)c(Cl)cc23)C[C@H]1C (atropisomer, axis not shown; (M)) [Example 92-64, (M)-6-Chloro-7-(2-chloro-3-fluoro-phenyl)-4-[(2S,5R)-2,5-dimethyl-4-prop-2-enoyl-piperazin-1-yl]-1-(2-isopropyl-4-methyl-3-pyridyl)pyrido [2,3-d]pyrimidin-2-one] | 0.044 µM | 0.039 µM | > 7.5 µM
C=CC(=O)N1C[C@H](C)N(c2nc(=O)n(-c3c(C)ccnc3C(C)C)c3nc(-c4cc(F)ccc4F)c(Cl)cc23)C[C@H]1C (atropisomer, axis not shown; (M)) [Example 92-65, (M)-6-Chloro-7-(2,5-difluorophenyl)-4-[(2S,5R)-2,5-dimethyl-4-prop-2-enoyl-piperazin-1-yl]-1-(2-isopropyl-4-methyl-3-pyridyl)pyrido [2,3-d]pyrimidin-2-one] | 0.046 µM | 0.066 µM | > 7.5 µM
C=CC(=O)N1C[C@H](C)N(c2nc(=O)n(-c3c(C)ccnc3C(C)C)c3nc(-c4cccc(F)c4F)c(Cl)cc23)C[C@H]1C (atropisomer, axis not shown; (M)) [Example 92-66, (M)-6-Chloro-7-(2,3-difluorophenyl)-4-[(2S,5R)-2,5-dimethyl-4-prop-2-enoyl-piperazin-1-yl]-1-(2-isopropyl-4-methyl-3-pyridyl)pyrido [2,3-d]pyrimidin-2-one] | 0.033 µM | 0.034 µM | > 7.5 µM
C=CC(=O)N1C[C@H](C)N(c2nc(=O)n(-c3c(C)ccnc3C(C)C)c3nc(-c4ccccc4OC)c(Cl)cc23)C[C@H]1C (atropisomer, axis not shown; (M)) [Example 92-67, (M)-6-Chloro-4-[(2S,5R)-2,5-dimethyl-4-prop-2-enoyl-piperazin-1-yl]-1-(2-isopropyl-4-methyl-3-pyridyl)-7-(2-methoxyphenyl) pyrido[2,3-d]pyrimidin-2-one] | 0.062 µM | 0.13 µM | > 7.5 µM
